Experimental findings from US11839613B2, “Pyrimidine derivatives as PGE2 receptor modulators” (IDORSIA PHARMACEUTICALS LTD, priority 2017, dated 2023) are described below.

One experiment concerns the target EP4 (Homo sapiens (Human), UniProt P35408). Nature of the experiment: hEP4 cAMP assay (BT549 breast cancer cells, HTRF cAMP). In kind it is cell-based. As to conditions: antagonistic activity, PGE2 6 nM. An excerpt: (§1) Human tumor cell lines expressing endogenously either EP4 or EP2 are used and cAMP accumulation in cells upon PGE2 stimulation is monitored. SF295 glioblastoma cells express high endogenous EP2 and no EP4, whereas BT549 breast cancer cells, express high endogenous EP4 levels and very low EP2 levels.
(§2) As a detection method for cAMP the HTRF (homogeneous time resolved fluorescence) Cisbio kit (HTRF cAMP dynamic 2 kit 20'000 tests Cisbio Cat. #62AM4PEC) was used, which is based on a competitive immunoassay using a Cryptate-labeled anti-cAMP antibody and d2-labeled cAMP. Native cAMP produced by cells or unlabeled cAMP (for the standard curve) compete with exogenously added d2-labeled cAMP (acceptor) for binding to monoclonal anti-cAMP-Eu3+Cryptate (donor). A FRET signal (Fluorescence Resonance Energy Transfer) is obtained only if the labeled anti-cAMP antibody binds the d2 labelled cAMP, thus the specific signal (i.e. energy transfer) is inversely proportional to the concentration of cAMP in the standard or sample.
(§3) Cells are counted washed and resuspended in assay buffer (AB; HBSS, 20 mM HEPES, 0.2% BSA; 2 mM IBMX).
Plate is pre-incubated 45 minutes at RT. Subsequently, 2.5 microliters of PGE2 (final conc. 6 nM) are transferred into the assay plate. Plate is incubated 30 minutes at RT.
For orientation: cAMP levels reflect the balance of adenylyl cyclase and phosphodiesterase activity.

A further experiment concerns the target EP2 (Homo sapiens (Human), UniProt P43116). Nature of the experiment: hEP2 cAMP assay (SF295 glioblastoma cells, HTRF cAMP). Particulars: antagonistic activity. In kind it is cell-based.
Text: as §1, §2, §3
Plate is pre-incubated 45 minutes at RT. […] Plate is incubated 30 minutes at RT.

For a further experiment, the target named is PTGER4 (EP4) (Homo sapiens (Human), UniProt P35408). Nature of the experiment: cell-based.
The next experiment has as its target PTGER2 (EP2) (Homo sapiens (Human), UniProt P43116). Nature of the experiment: hEP2 b-arrestin assay (PathHunter HEK 293 PTGER2 b-arrestin cells). The class given is cell-based. Particulars: antagonistic activity, beta-arrestin assay; read-out: hEP2 b-arr IC50. The procedure:
Plate is pre-incubated 15 minutes at 37° C. Then five microliters of PGE2 (final conc. 5 μM) are transferred into the assay plate. Plate is incubated 120 minutes at 37° C.
(each concentration is measured in duplicate)

Sequence of PTGER4 (EP4) (P35408 whole entry): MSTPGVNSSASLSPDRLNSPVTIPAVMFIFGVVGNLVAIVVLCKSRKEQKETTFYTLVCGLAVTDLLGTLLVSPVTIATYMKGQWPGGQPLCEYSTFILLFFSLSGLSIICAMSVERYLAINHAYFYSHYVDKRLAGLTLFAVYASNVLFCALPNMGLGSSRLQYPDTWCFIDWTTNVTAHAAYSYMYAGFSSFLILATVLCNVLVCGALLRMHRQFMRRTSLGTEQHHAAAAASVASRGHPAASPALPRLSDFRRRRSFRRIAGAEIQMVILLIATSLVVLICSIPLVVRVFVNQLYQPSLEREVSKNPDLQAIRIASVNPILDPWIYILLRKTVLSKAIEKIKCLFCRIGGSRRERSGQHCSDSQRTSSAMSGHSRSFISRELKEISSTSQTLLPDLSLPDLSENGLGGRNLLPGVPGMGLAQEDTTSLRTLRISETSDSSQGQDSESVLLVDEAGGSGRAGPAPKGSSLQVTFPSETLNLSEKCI
Sequence of EP4 (P35408 whole entry): as above
Sequence of EP2 (P43116 whole entry): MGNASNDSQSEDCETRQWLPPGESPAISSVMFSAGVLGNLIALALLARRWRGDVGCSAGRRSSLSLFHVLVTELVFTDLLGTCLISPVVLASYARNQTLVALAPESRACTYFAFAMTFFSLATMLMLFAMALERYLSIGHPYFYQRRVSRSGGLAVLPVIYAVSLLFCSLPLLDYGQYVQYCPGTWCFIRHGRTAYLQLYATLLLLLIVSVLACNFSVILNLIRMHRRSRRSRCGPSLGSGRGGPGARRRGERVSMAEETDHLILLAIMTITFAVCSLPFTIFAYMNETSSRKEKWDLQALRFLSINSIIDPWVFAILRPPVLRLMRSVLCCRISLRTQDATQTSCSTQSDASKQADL
Sequence of PTGER2 (EP2) (P43116 whole entry): as above

The term IC50 denotes the concentration needed to halve the response being measured. For the molecule `O=C(O)c1ccc(-c2cc(NCCc3ccc4c(c3)OCC4)ncn2)cc1OC1CCC1` [Ex 295], the IC50 was 568 nM against EP4, 520 nM against EP2 and 603 nM at PTGER4 (EP4).

As to `CSc1cc(-c2cc(NCCc3ccc4c(c3)OCCC4)ncn2)ccc1C(=O)O` [Ex 285, 4-[6-(2-Chroman-7-yl-ethylamino)-pyrimidin-4-yl]-2-methylsulfanyl-benzoic acid], the IC50 against EP4 worked out at 513 nM; against EP2, 7520 nM; at PTGER4 (EP4) it was 341 nM.

Consider `CCOc1cc(-c2cc(NCCc3cc4c(cc3OC)CCCC4)ncn2)sc1C(=O)O` [Ex 60, 3-Ethoxy-5-{6-[2-(3-methoxy-5,6,7,8-tetrahydro-naphthalen-2-yl)-ethylamino]-pyrimidin-4-yl}-thiophene-2-carboxylic acid], for which the IC50 is 31 nM on EP4, 320 nM on EP2 and 3 nM against PTGER4 (EP4).

As to `CCOc1cc(-c2cc(NCCc3cc4c(cc3OC)OCCCO4)ncn2)sc1C(=O)O` [Ex 21, 3-Ethoxy-5-{6-[2-(8-methoxy-3,4-dihydro-2H-benzo[b][1,4]dioxepin-7-yl)-ethylamino]-pyrimidin-4-yl}-thiophene-2-carboxylic acid], the IC50 against EP4 worked out at 12 nM; at EP2, 912 nM; on PTGER4 (EP4), 58 nM.

For the molecule `CCOc1cc(-c2cc(NCCc3cc4c(cc3OC(F)F)OCO4)ncn2)ccc1OCC(=O)O` [Ex 217], the IC50 stood at 238 nM on PTGER2 (EP2), 272 nM at EP4 and 321 nM against EP2.

`CCOc1cc(-c2cc(NCCc3cc4c(cc3OC)OCO4)ncn2)ccc1C(=O)O` [Ex 315, 2-Ethoxy-4-{6-[2-(6-methoxy-benzo[1,3]dioxol-5-yl)-ethylamino]-pyrimidin-4-yl}-benzoic acid]: the IC50 on PTGER2 (EP2) turned out to be 134 nM; against EP4, 703 nM; at EP2, 73 nM.

In the case of `CCOc1cc(-c2cc(NCCc3cc4c(cc3OC(F)F)OCO4)ncn2)ccc1C(=O)O` [Ex 325], the IC50 at PTGER2 (EP2) was 441 nM; against EP4, 887 nM; at EP2, 332 nM.

Regarding `CCSc1cc(-c2cc(NCCc3cc4ccoc4cc3F)ncn2)ccc1C(=O)O` [Ex 275], the IC50 was determined as 67 nM at PTGER2 (EP2), 468 nM against EP4 and 102 nM at EP2.

For `CCOc1cc(-c2cc(NCCc3c(OC)cc4occc4c3C)ncn2)ccc1C(=O)O` [Ex 221, 2-Ethoxy-4-{6-[2-(6-methoxy-4-methyl-benzofuran-5-yl)-ethylamino]-pyrimidin-4-yl}-benzoic acid], the results for the concentration for half-maximal inhibition (IC50) on PTGER2 (EP2), against EP4 and on EP2 were 8 nM, 285 nM and 2 nM, respectively.

Regarding `Fc1cc2ncccc2c(F)c1CCNc1cc(-c2ccc3cnccc3c2)ncn1` [Ex 318, [2-(5,7-Difluoro-quinolin-6-yl)-ethyl]-(6-isoquinolin-6-yl-pyrimidin-4-yl)-amine], the IC50 amounted to 408 nM on PTGER2 (EP2), 753 nM at EP4 and 247 nM against EP2.

Regarding `CCOc1cc(-c2cc(NCCc3cc4c(cc3OC)OCCO4)ncn2)ccc1C(=O)O` [Ex 286], the IC50 at PTGER2 (EP2) is 198 nM; on EP4, 515 nM; against EP2, 86 nM.

For `CCOc1cc(-c2cc(NCCc3cc4c(cc3C)OCCO4)ncn2)ccc1C(=O)O` [Ex 327], the results for the IC50 at PTGER2 (EP2), against EP4 and at EP2 were 296 nM, 920 nM and 159 nM, respectively.

With `CCOc1cc(-c2cc(NCCc3cc4c(cc3OC)OCO4)ncn2)ccc1OCC(=O)O` [Ex 239], the values for the IC50 on PTGER2 (EP2), against EP4 and against EP2 were 134 nM, 346 nM and 222 nM, respectively.

On to `CSc1cc(-c2cc(NCCc3cc4ccoc4cc3F)ncn2)ccc1C(=O)O` [Ex 238, 4-{6-[2-(6-Fluoro-benzofuran-5-yl)-ethylamino]-pyrimidin-4-yl}-2-methylsulfanyl-benzoic acid], for which the IC50 is 55 nM on PTGER2 (EP2), 343 nM on EP4 and 75 nM against EP2.

Regarding `Cn1[nH]c(=O)c2ccc(-c3cc(NCCc4ccc5cc[nH]c5c4)ncn3)cc21` [Ex 249], the IC50 on PTGER2 (EP2) came out at 196 nM; against EP4, 368 nM; against EP2, 171 nM.
